≈ marks a conversion by molar mass, not a printed value.

One data set concerns PanE KPR from E. coli.
Test: not given
As to conditions: literature values; cited from earlier work.
For the compound NADPH, the Michaelis-Menten constant (Km) was 4 to 7 µM.

Turning to `CC(C)(CO)C(=O)C(=O)O` [ketopantoate], the Km is 30 to 120 µM.

Another data set deals with Mtb H37Rv. The data set is described as follows: microbe, parasite or virus in culture. It counts as cell-based. As to conditions: Mycobacterium tuberculosis, 168 h, read-out: MIC 7H9/ADC/Tw.
As for `N[C@H](Cc1ccccc1)C(=O)O` [D-Phe, D-phenylalanine], the MIC was more than 310 µM.

The next data set deals with CC(C)(CO)C(=O)C(=O)O. The data set is described as follows: purified protein, by the assay type.
Settings: not given
Turning to “MtbPanG (Rv3603c) (Mycobacterium tuberculosis H37Rv)”, the Km was determined as 24 ± 2 µM.

A further data set has as its system Mtb WT. As to the kind of experiment: microbe, parasite or virus in culture. It counts as cell-based, Mycobacterium tuberculosis.
Settings: not given
For the compound Capreomycin, the “MIC WT” value is 0.78 µM. The same measure, in the same setting: for `CC1(C)S[C@@H]2[C@H](NC(=O)[C@H](N)c3ccccc3)C(=O)N2[C@H]1C(=O)O` [Ampicillin] the value was more than 50 µM.

The data set is the same for the next values; noted with them: Mycobacterium tuberculosis.
The compound `CC1(C)S[C@@H]2[C@H](NC(=O)[C@H](N)c3ccccc3)C(=O)N2[C@H]1C(=O)O` [Ampicillin] registered an MIC of 2.3 µM (≈ 0.804 µg/mL).

The data set is the same for the next values; noted with them: Mycobacterium tuberculosis, read-out: MIC WT.
As for `NNC(=O)c1ccncc1` [Isoniazid], the MIC was 0.31 µM (≈ 0.0425 µg/mL). As to `CN[C@H](CC(C)C)C(=O)N[C@H]1C(=O)N[C@@H](CC(N)=O)C(=O)N[C@H]2C(=O)N[C@H]3C(=O)N[C@H](C(=O)N[C@H](C(=O)O)c4cc(O)cc(O)c4-c4cc3ccc4O)[C@H](O)c3ccc(c(Cl)c3)Oc3cc2cc(c3O[C@@H]2O[C@H](CO)[C@@H](O)[C@H](O)[C@H]2O[C@H]2C[C@](C)(N)[C@H](O)[C@H](C)O2)Oc2ccc(cc2Cl)[C@H]1O` [Vancomycin], the MIC is 5 µM (≈ 7.25 µg/mL). The same measure, in the same setting: for `COc1nc2ccc(Br)cc2cc1[C@@H](c1ccccc1)[C@@](O)(CCN(C)C)c1cccc2ccccc12` [Bedaquiline] the value was 0.31 µM (≈ 0.172 µg/mL); for `C[C@@H](O)[C@H]1C(=O)N2C(C(=O)O)=C(S[C@@H]3CN[C@H](C(=O)N(C)C)C3)[C@H](C)[C@H]12` [Meropenem], 1.2 µM (≈ 0.46 µg/mL); for `CCc1cc(C(N)=S)ccn1` [Ethionamide], 0.3 µM (≈ 0.0499 µg/mL).

For `C[C@@H](O)[C@H]1C(=O)N2C(C(=O)O)=C(SCCN=CN)C[C@H]12` [Imipenem], the MIC turned out to be 0.39 µM (≈ 0.117 µg/mL). Same read-out and setting: in the case of `C[C@]1(COc2ccc(N3CCC(Oc4ccc(OC(F)(F)F)cc4)CC3)cc2)Cn2cc([N+](=O)[O-])nc2O1` [Delamanid] it was 0.0031 µM (≈ 0.00166 µg/mL).

As for `COc1c(N2C[C@@H]3CCCN[C@@H]3C2)c(F)cc2c(=O)c(C(=O)O)cn(C3CC3)c12` [Moxifloxacin], the MIC amounted to 0.12 µM (≈ 0.0482 µg/mL).

In the case of `N[C@@H]1CON=C1O` [D-Cycloserine], the MIC was found to be 4.7 µM (≈ 0.48 µg/mL). The same measure, in the same setting: in the case of `CC(=O)NC[C@H]1CN(c2ccc(N3CCOCC3)c(F)c2)C(=O)O1` [Linezolid] it was 0.78 µM (≈ 0.263 µg/mL); in that of `CO[C@H]1/C=C/O[C@@]2(C)Oc3c(C)c(O)c4c(O)c(c(/C=N/N5CCN(C)CC5)c(O)c4c3C2=O)NC(=O)/C(C)=C\C=C\[C@H](C)[C@H](O)[C@@H](C)[C@@H](O)[C@@H](C)[C@H](OC(C)=O)[C@@H]1C` [Rifampicin], 0.012 µM (≈ 0.00988 µg/mL). As to `CC[C@@H](CO)NCCN[C@@H](CC)CO` [Ethambutol], the MIC worked out at 1.6 µM (≈ 0.327 µg/mL).

For `Nc1ccc(C(=O)O)c(O)c1` [p-Aminosalicylic acid], the MIC came out at 0.3 µM (≈ 0.0459 µg/mL).

In the case of `CC(C)/N=c1\cc2n(-c3ccc(Cl)cc3)c3ccccc3nc-2cc1Nc1ccc(Cl)cc1` [Clofazimine], the MIC amounted to 0.16 µM (≈ 0.0757 µg/mL).

Regarding `CC1(C)S[C@@H]2[C@H](NC(=O)[C@H](N)c3ccccc3)C(=O)N2[C@H]1C(=O)O` [Ampicillin], the MIC is more than 50 µM. On the same count and under the same terms, for `[H]/N=C(/N)N[C@H]1[C@H](O)[C@@H](O)[C@H](O[C@@H]2O[C@@H](C)[C@](O)(C=O)[C@H]2O[C@@H]2O[C@@H](CO)[C@H](O)[C@@H](O)[C@@H]2NC)[C@@H](N/C(N)=N\[H])[C@@H]1O` [Streptomycin] the value was 0.46 µM (≈ 0.268 µg/mL).
